Experimental data reported in patent US20120059162A1, “FUSED IMIDAZOLE DERIVATIVE HAVING TTK INHIBITORY ACTION” (Oncotherapy Science, Inc., priority 2009, published 2012).
Where two headings read alike, the source gives them in different places.

Columns and labels:
TTK = target: T1, TTK (Homo sapiens, UniProt P33981); assay: TTK assay: screening of TTK kinase activity suppressing action using p38 MAPK peptide; assay type: biochemical; conditions: read-out: TTK IC50
T1 sequence (P33981 1-857): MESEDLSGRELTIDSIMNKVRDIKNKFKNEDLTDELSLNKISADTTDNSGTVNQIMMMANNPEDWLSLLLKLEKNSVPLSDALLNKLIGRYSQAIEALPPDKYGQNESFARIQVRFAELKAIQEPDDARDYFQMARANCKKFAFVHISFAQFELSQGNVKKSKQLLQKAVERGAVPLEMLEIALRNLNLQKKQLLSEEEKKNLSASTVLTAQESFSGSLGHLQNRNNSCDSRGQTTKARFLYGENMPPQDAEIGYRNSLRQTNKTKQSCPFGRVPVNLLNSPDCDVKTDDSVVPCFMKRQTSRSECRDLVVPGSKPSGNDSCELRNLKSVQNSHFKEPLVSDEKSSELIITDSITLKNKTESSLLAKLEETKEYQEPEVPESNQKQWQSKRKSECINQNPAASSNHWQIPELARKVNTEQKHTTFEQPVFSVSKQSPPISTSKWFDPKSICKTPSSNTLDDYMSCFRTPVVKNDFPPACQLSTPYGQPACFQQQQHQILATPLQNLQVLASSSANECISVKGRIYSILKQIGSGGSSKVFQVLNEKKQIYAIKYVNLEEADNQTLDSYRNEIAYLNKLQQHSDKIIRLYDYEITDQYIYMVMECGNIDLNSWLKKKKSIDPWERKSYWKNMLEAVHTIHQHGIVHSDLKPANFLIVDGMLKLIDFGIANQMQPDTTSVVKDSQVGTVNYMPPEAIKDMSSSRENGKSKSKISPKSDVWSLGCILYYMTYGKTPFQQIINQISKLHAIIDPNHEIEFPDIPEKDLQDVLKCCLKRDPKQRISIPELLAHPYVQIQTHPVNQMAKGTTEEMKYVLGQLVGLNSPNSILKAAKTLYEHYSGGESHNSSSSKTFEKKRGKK
In short: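 TTK (4 μg/ml in enzyme solution) mixed with p38 MAPK peptide and ATP (each 60 μM in substrate solution) in Tris-HCl pH 7.5 with MgCl2, DTT, Na3VO4, β-glycerophosphate, BSA. Reaction aliquot captured on NeutrAvidin plate, detected with Eu-labelled anti-mouse IgG by time-resolved fluorescence; inhibition relative to no-compound signal.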

A549 = A549 assay: screening of cancer cell growth inhibiting compound; assay type: cell-based; conditions: Homo sapiens, A549 cells, read-out: A549 IC50
In short: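 A549 cells (1×10^4/ml) in D-MEM with 10% FBS were pre-incubated one day at 37 °C, then exposed to compound dilutions for three further days. Viable cell number read by WST-8 (1–4 hours), absorbance 450 nm (reference 620 nm); inhibition calculated relative to untreated wells.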

Row | SMILES | IC50 (TTK; p38 MAPK peptide substrate) [nM] | IC50 (A549; 72 h, three days, WST-8) [nM] | IC50 (TTK) [nM] | IC50 (A549; values given as IC50 intervals) [nM]
1 | O=C(NC1CC1)c1ccc(-c2cnc3c(NCC4CCOCC4)cc(NC4CCC(F)(F)CC4)nn23)cc1 [Example 2-67] | 3.7 | 50 to 500 |  | 
2 | N#Cc1ccc(-c2cn3c(-c4ccc(C(=O)NC5CC5)cc4)cnc3c(NCCc3ccc(O)cc3)n2)cc1 [Example 1-228] | 20.5 | 500 to 1000 |  | 
3 | Cn1cncc1CNc1cc(NC2CCCCC2)nn2c(-c3ccc(C(=O)NC4CC4)cc3)cnc12 [Example 2-148] | 3.9 | 500 to 1000 |  | 
4 | O=C(NC1CC1)c1ccc(-c2cnc3c(NCC4CCOCC4)cc(NC45CC6CC(CC4C6)C5)nn23)cc1 [Example 2-37] | 2.7 | ≤ 50 |  | 
5 | CC(=O)N1CCC(CNc2nc(-c3ccc(C#N)cc3)cn3c(-c4ccc(C(=O)NC5CC5)cc4)cnc23)CC1 [Example 1-233] | 20.2 | 500 to 1000 |  | 
6 | Cn1cnc(CNc2cc(NC3CCCCC3)nn3c(-c4ccc(C(=O)NC5CC5)cc4)cnc23)c1 [Example 2-149] | 5.4 | 50 to 500 |  | 
7 | O=C(NC1CC1)c1ccc(-c2cnc3c(NCC4CCOCC4)cc(OCC(F)(F)F)nn23)cc1 [Example 2-183] |  |  | 5.7 | 50 to 500
8 | O=C(NC1CC1)c1ccc(-c2cnc3c(NCc4cccs4)cc(NC4CCCCC4)nn23)cc1 [Example 2-151] | 3.1 | 50 to 500 |  | 
9 | CC(C)CCNc1cc(NC2CCCCC2)nn2c(-c3ccc(C(=O)NC4CC4)cc3)cnc12 [Example 2-139] | 10.5 | 50 to 500 |  | 
10 | CCC(C)Nc1cc(NCC2CCOCC2)c2ncc(-c3ccc(C(=O)NC4CC4)cc3)n2n1 (stereo not shown) [Example 2-87, 4-(6-(sec-Butylamino)-8-((tetrahydro-2H-pyran-4-yl)methylamino)imidazo[1,2-b]pyridazin-3-yl)-N-cyclopropylbenzamide] | 6.2 | 50 to 500 |  | 
11 | O=C(NC1CC1)c1ccc(-c2cnc3c(NCC4CCOCC4)cc(Oc4ccccc4Cl)nn23)cc1 [Example 2-90, 4-(6-(2-Chlorophenoxy)-8-((tetrahydro-2H-pyran-4-yl)methylamino)imidazo[1,2-b]pyridazin-3-yl)-N-cyclopropylbenzamide] | 2.7 | 50 to 500 |  | 
12 | O=C(NC1CC1)c1ccc(-c2cnc3c(NCC4CCOCC4)cc(C4CCNCC4)nn23)cc1 [Example 2-212] |  |  | 23.1 | 1000 to 10000
13 | O=C(NC1CC1)c1ccc(-c2cnc3c(NCC4CCOCC4)cc(NC(=O)C4CCCCC4)nn23)cc1 [Example 2-36] | 44.2 | 1000 to 10000 |  | 
14 | N#Cc1ccc(-c2cn3c(-c4ccc(C(=O)NC5CC5)cc4)cnc3c(NCC(F)F)n2)cc1 [Example 1-236] | 8.3 | 50 to 500 |  | 
15 | NC1CCCCC1Nc1cc(NCC2CCOCC2)c2ncc(-c3ccc(C(=O)NC4CC4)cc3)n2n1 (stereo not shown) [Example 2-71] | 9.4 | 1000 to 10000 |  | 
16 | CCC(C)CNc1cc(NC2CCCCC2)nn2c(-c3ccc(C(=O)NC4CC4)cc3)cnc12 (stereo not shown) [Example 2-137] | 7.3 | 50 to 500 |  | 
17 | O=C(NC1CC1)c1ccc(-c2cnc3c(NCC4CCOCC4)cc(NC4CCC4)nn23)cc1 [Example 2-25] | 5.6 | 50 to 500 |  | 
18 | O=C(NC1CC1)c1ccc(-c2cnc3c(NCC4CCOCC4)cc(Oc4cc(F)ccc4O)nn23)cc1 [Example 2-118] | 2.2 | ≤ 50 |  | 
19 | N#Cc1ccc(-c2cn3c(-c4ccc(C(=O)NC5CC5)cc4)cnc3c(NCCCCO)n2)cc1 [Example 1-238] | 14.3 | 50 to 500 |  | 
20 | O=C(NC1CC1)c1ccc(-c2cnc3c(NCC4CCOCC4)cc(NC4CC=CC4)nn23)cc1 [Example 2-54] | 7.4 | 50 to 500 |  | 
21 | N#Cc1ccc(-c2cn3c(-c4ccc(C(=O)NC5CC5)cc4)cnc3c(NCCS(=O)(=O)N3CCCC3)n2)cc1 [Example 1-224] | 18.3 | 500 to 1000 |  | 
22 | CC1(Nc2cc(NCC3CCOCC3)c3ncc(-c4ccc(C(=O)NC5CC5)cc4)n3n2)CCOCC1 [Example 2-79] | 5.9 | 50 to 500 |  | 
23 | O=C(NC1CC1)c1ccc(-c2cnc3c(NCC4CCOCC4)cc(NC4CC5CCCC(C5)C4)nn23)cc1 (stereo not shown) [Example 2-38] | 4.5 | ≤ 50 |  | 
24 | N#Cc1ccc(Oc2cc(NCC3CCOCC3)c3ncc(-c4ccc(C(=O)NC5CC5)cc4)n3n2)cc1 [Example 2-177] |  |  | 14.3 | 50 to 500

Row | SMILES | IC50 (TTK; p38 MAPK peptide substrate) [nM] | IC50 (A549; 72 h, three days, WST-8) [nM] | IC50 (TTK) [nM] | IC50 (A549; values given as IC50 intervals) [nM]
25 | O=C(NC1CC1)c1ccc(-c2cnc3c(NCC4CCOCC4)cc(NC4CCCC(F)(F)C4)nn23)cc1 (stereo not shown) [Example 2-80] | 4 | ≤ 50 |  | 
26 | CC1(Nc2cc(NCC3CCOCC3)c3ncc(-c4ccc(C(=O)NC5CC5)cc4)n3n2)CCS(=O)(=O)C1 (stereo not shown) [Example 2-72] | 3.9 | 50 to 500 |  | 
27 | N#Cc1ccc(-c2cn3c(-c4ccc(C(=O)NC5CC5)cc4)cnc3c(NCC3CC3)n2)cc1 [Example 1-219] | 9.5 | 50 to 500 |  | 
28 | Nc1cc(C(=O)NC2CC2)ccc1-c1cnc2c(NCC3CCOCC3)cc(NC3CCCC3)nn12 [Example 2-225] |  |  | 9.7 | 50 to 500
29 | O=C(NC1CC1)c1ccc(-c2cnc3c(NCC4CCOCC4)cc(N4CCCC4CO)nn23)cc1 (stereo not shown) [Example 2-62] | 8.7 | 50 to 500 |  | 
30 | O=C(NC1CC1)c1ccc(-c2cnc3c(NCC4CCOCC4)cc(NC4CCCCC4O)nn23)cc1 (stereo not shown) [Example 2-70] | 4.5 | 50 to 500 |  | 
31 | Cc1cc(C#N)ccc1-c1cc(NCC2CCOCC2)c2ncc(-c3ccc(C(=O)NC4CC4)cc3)n2n1 [Example 2-202] |  |  | 3.5 | 50 to 500
32 | O=C(NC1CC1)c1ccc(-c2cnc3c(NCC4CCOCC4)cc(N[C@H]4CC[C@H](O)CC4)nn23)cc1 [Example 2-43] | 12.5 | 500 to 1000 |  | 
33 | O=C(NC1CC1)c1ccc(-c2cnc3c(NCC4CCOCC4)cc(C4=CCNCC4)nn23)cc1 [Example 2-211] |  |  | 8.3 | 50 to 500
34 | O=C(NC1CC1)c1ccc(-c2cnc3c(NCC4CCOCC4)cc(Oc4cccc(O)c4)nn23)cc1 [Example 2-110] | 2.9 | 50 to 500 |  | 
35 | COc1ccc(Oc2cc(NCC3CCOCC3)c3ncc(-c4ccc(C(=O)NC5CC5)cc4)n3n2)cc1 [Example 2-179] |  |  | 3.7 | ≤ 50
36 | C#CC1(Nc2cc(NCC3CCOCC3)c3ncc(-c4ccc(C(=O)NC5CC5)cc4)n3n2)CCCCC1 [Example 2-77] | 21.3 | 500 to 1000 |  | 
37 | O=C(NC1CC1)c1ccc(-c2cnc3c(NCc4ccc(=O)[nH]c4)cc(NC4CCCCC4)nn23)cc1 [Example 2-165] | 5.6 | 1000 to 10000 |  | 
38 | O=C(NC1CC1)c1ccc(-c2cnc3c(NCC4CCOCC4)cc(N4CCOC(CO)C4)nn23)cc1 (stereo not shown) [Example 2-49] | 17.8 | 500 to 1000 |  | 
39 | O=C(NC1CC1)c1ccc(-c2cnc3c(NCCSCCO)cc(NC4CCCCC4)nn23)cc1 [Example 2-136] | 7.3 | 50 to 500 |  | 
40 | O=C(NC1CC1)c1ccc(-c2cnc3c(NCC4CCOCC4)cc(N4CCOCC4)nn23)cc1 [Example 2-14] | 9.3 | 50 to 500 |  | 
41 | CC(=O)N1CC=C(c2cc(NCC3CCOCC3)c3ncc(-c4ccc(C(=O)NC5CC5)cc4)n3n2)CC1 [Example 2-213] |  |  | 12 | 50 to 500
42 | CC(C)C(C)Nc1cc(NCC2CCOCC2)c2ncc(-c3ccc(C(=O)NC4CC4)cc3)n2n1 (stereo not shown) [Example 2-55] | 4.9 | 50 to 500 |  | 
43 | NC(=O)c1ccc(-c2cc(NCC3CCOCC3)c3ncc(-c4ccc(C(=O)NC5CC5)cc4)n3n2)cc1 [Example 2-4, 4-(6-(4-Carbamoylphenyl)-8-((tetrahydro-2H-pyran-4-yl)methylamino)imidazo[1,2-b]pyridazin-3-yl)-N-cyclopropylbenzamide] | 4.5 | 1000 to 10000 |  | 
44 | CC(Nc1cc(NCC2CCOCC2)c2ncc(-c3ccc(C(=O)NC4CC4)cc3)n2n1)c1cccs1 (stereo not shown) [Example 2-84] | 7.5 | 50 to 500 |  | 
45 | CC(Nc1cc(NCC2CCOCC2)c2ncc(-c3ccc(C(=O)NC4CC4)cc3)n2n1)C(C)(C)C (stereo not shown) [Example 2-60] | 4.6 | ≤ 50 |  | 
46 | O=C(NC1CC1)c1ccc(-c2cnc3c(NCC4CCCO4)cc(NC4CCCCC4)nn23)cc1 (stereo not shown) [Example 2-167] |  |  | 3.9 | 50 to 500
47 | CC(C)N(C)c1cc(NCC2CCOCC2)c2ncc(-c3ccc(C(=O)NC4CC4)cc3)n2n1 [Example 2-24] | 5.5 | 50 to 500 |  | 
